From article PMC8539695, “Promising Natural Compounds against Flavivirus Proteases: Citrus Flavonoids Hesperetin and Hesperidin” (Plants, 2021)

Tests used:
[1] = target: T1, WNV NS2B/NS3^pro (West Nile virus, UniProt P06935); assay: biochemical; assay type: binding
T1 construct: tryptophan residues in the NS2B cofactor domain and in the NS3 protease domain; inferred from Ni-NTA purification and the pET-15b vector; made in house; host or cells: E. coli Lemo (DE3)

[2] = target: T2, DENV2 NS2B/NS3^pro (Dengue virus type 2, UniProt P14340); assay: biochemical; assay type: biochemical
T2 construct: tryptophan residues in the NS2B cofactor domain and in the NS3 protease domain; inferred from Ni-NTA purification and the pET-15b vector; made in house; host or cells: E. coli Lemo (DE3)
T2 sequence (P14340 with tags, fused parts or gaps I1442G/L1443G/I1444G/R1445G/T1446S/DEL1448-1472/K1473G/Q1474G/R1475G): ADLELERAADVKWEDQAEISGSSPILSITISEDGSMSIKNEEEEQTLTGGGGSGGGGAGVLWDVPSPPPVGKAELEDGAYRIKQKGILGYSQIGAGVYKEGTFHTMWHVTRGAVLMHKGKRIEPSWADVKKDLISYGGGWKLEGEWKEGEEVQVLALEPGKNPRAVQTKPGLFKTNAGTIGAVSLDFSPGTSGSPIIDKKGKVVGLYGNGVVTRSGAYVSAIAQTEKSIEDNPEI

[3] = target: T2, DENV2 NS2B/NS3^pro; assay: biochemical; assay type: binding
[4] = target: T1, WNV NS2B/NS3^pro; assay: biochemical; conditions: for inhibition at 10 µM: read-out: Inhibition of protease activity, primary inhibition test
[5] = target: T3, YFV NS2B/NS3^pro (Yellow fever virus, UniProt Q1X881); assay: biochemical; conditions: for inhibition at 10 µM: read-out: Inhibition of protease activity, primary inhibition test
T3 sequence (Q1X881 1485-1665 limits assumed): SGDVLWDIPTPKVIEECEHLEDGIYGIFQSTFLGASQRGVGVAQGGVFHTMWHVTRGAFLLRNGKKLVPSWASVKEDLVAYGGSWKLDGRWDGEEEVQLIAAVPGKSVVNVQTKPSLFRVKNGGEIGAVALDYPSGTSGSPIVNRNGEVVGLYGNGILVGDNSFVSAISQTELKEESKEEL
T3 sequence (Q1X881 1407-1446 partner limits assumed): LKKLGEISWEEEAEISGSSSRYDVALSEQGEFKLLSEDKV

[6] = target: T3, YFV NS2B/NS3^pro; assay: biochemical; assay type: binding
[7] = target: ZIKV NS2B/NS3^pro; parameters: method as in PMID 33661906; conditions: ZIKV NS2B/NS3pro, value ± STD; cited from earlier work
[8] = tested on: ZIKV NS2B/NS3^pro; parameters: method as in PMID 33661906; conditions: ZIKV NS2B/NS3pro, cited from earlier work

T1 sequence (P06935 1502-1679 limits assumed): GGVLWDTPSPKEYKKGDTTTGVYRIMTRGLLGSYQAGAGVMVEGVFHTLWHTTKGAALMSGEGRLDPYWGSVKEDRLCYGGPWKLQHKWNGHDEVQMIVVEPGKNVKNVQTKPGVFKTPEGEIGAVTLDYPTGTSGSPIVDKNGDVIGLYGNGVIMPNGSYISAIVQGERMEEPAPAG
T1 sequence (P06935 1424-1463 partner limits assumed): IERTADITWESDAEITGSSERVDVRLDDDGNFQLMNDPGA

COc1ccc(C2CC(=O)c3c(O)cc(OC4O[C@H](CO[C@@H]5O[C@@H](C)[C@H](O)[C@@H](O)[C@H]5O)[C@@H](O)[C@H](O)[C@H]4O)cc3O2)cc1O (some centres unmarked) [HSD, 3′,5,7-trihydroxy-4′-methoxy-flavanone-7-rhamnoglucoside]
Kd [1]: 19.5 ± 2.8 µM
Red edge excitation shift (REES) of the protease maximum fluorescence peak [1]: no shift
Concentration that inhibited 100% of the protease activity [2]: 140 µM
IC50 [2]: 55.7 ± 2.5 µM
Inhibition Mode [2]: noncompetitive
LE (ligand efficiency) [2]: 0.14
Kd [3]: 20.9 ± 2.4 µM
Red edge excitation shift (REES) of the protease maximum fluorescence peak [3]: no shift
Concentration that inhibited 100% of the protease activity [4]: 120 µM
IC50 [4]: 50.7 ± 8.3 µM
Inhibition Mode [4]: noncompetitive
LE (ligand efficiency) [4]: 0.14
inhibition at 10 µM [4]: ~30%
Concentration that inhibited 100% of the protease activity [5]: 140 µM
IC50 [5]: 67.7 ± 7.5 µM
Inhibition Mode [5]: noncompetitive
LE (ligand efficiency) [5]: 0.13
inhibition at 10 µM [5]: ~30%
Kd [6]: 29.5 ± 2.8 µM
Red edge excitation shift (REES) of the protease maximum fluorescence peak [6]: no shift

COc1ccc(C2CC(=O)c3c(O)cc(O)cc3O2)cc1O (centres unmarked) [HST, 3′,5,7-trihydroxy-4′-methoxyflavanone]
Kd [1]: 13.5 ± 2 µM
Red edge excitation shift (REES) of the protease maximum fluorescence peak [1]: 15 nm
Kd [7]: 17.8 ± 2.9 µM
Concentration that inhibited 100% of the protease activity [2]: 140 µM
IC50 [2]: 4.7 ± 0.8 µM
Inhibition Mode [2]: noncompetitive
LE (ligand efficiency) [2]: 0.34
Kd [3]: 18.7 ± 2.7 µM
Red edge excitation shift (REES) of the protease maximum fluorescence peak [3]: 11 nm
Concentration that inhibited 100% of the protease activity [4]: 80 µM
IC50 [4]: 4.27 µM
Inhibition Mode [4]: noncompetitive
LE (ligand efficiency) [4]: 0.34
inhibition at 10 µM [4]: ~70%
Concentration that inhibited 100% of the protease activity [5]: 80 µM
IC50 [5]: 2.04 µM
Inhibition Mode [5]: noncompetitive
LE (ligand efficiency) [5]: 0.36
inhibition at 10 µM [5]: ~80%
IC50 ([8]; value ± STD): 12.6 ± 1.3 µM
Inhibition Mode [8]: noncompetitive
pIC50 [8]: 4.90
Kd [6]: 12.3 ± 2.2 µM
Red edge excitation shift (REES) of the protease maximum fluorescence peak [6]: 22 nm
